Test results taken from the supplement of paper PMC11451515.

Test system: P12-Ichikawa
Experiment: cell viability relative to DMSO control; higher = less cytotoxic
Conditions: 48 h
In short: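 In 1536-well plates, 5 μl of leukemia cells were seeded per well: 500 cells/well for NOMO1 or SEM and 1000 cells/well for P12-Ichikawa. Each line had first been adapted for at least four passages in each medium. Library compounds in DMSO were pin-dosed at 11 threefold concentrations between 47 μM and 0.79 nM, and CellTiter-Glo One luminescence was read after 48 h at 37°C. Viability is a per-plate percentage relative to DMSO wells, with cell-free wells as background.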

[1] = HPLM + 10% dialyzed FBS, 0.000781 µM
[2] = HPLM + 10% dialyzed FBS, 0.00234 µM
[3] = HPLM + 10% dialyzed FBS, 0.00702 µM
[4] = HPLM + 10% dialyzed FBS, 0.0211 µM
[5] = HPLM + 10% dialyzed FBS, 0.0632 µM
[6] = HPLM + 10% dialyzed FBS, 0.19 µM
[7] = HPLM + 10% dialyzed FBS, 0.569 µM
[8] = HPLM + 10% dialyzed FBS, 1.71 µM
[9] = HPLM + 10% dialyzed FBS, 5.12 µM
[10] = HPLM + 10% dialyzed FBS, 15.4 µM
[11] = HPLM + 10% dialyzed FBS, 46.1 µM
[12] = RPMI 5 mM glucose + 10% FBS, 0.000781 µM
[13] = RPMI 5 mM glucose + 10% FBS, 0.00234 µM
[14] = RPMI 5 mM glucose + 10% FBS, 0.00702 µM
[15] = RPMI 5 mM glucose + 10% FBS, 0.0211 µM
[16] = RPMI 5 mM glucose + 10% FBS, 0.0632 µM
[17] = RPMI 5 mM glucose + 10% FBS, 0.19 µM
[18] = RPMI 5 mM glucose + 10% FBS, 0.569 µM
[19] = RPMI 5 mM glucose + 10% FBS, 1.71 µM
[20] = RPMI 5 mM glucose + 10% FBS, 5.12 µM
[21] = RPMI 5 mM glucose + 10% FBS, 15.4 µM
[22] = RPMI 5 mM glucose + 10% FBS, 46.1 µM
[23] = RPMI 5 mM glucose + 10% dialyzed FBS, 0.000781 µM
[24] = RPMI 5 mM glucose + 10% dialyzed FBS, 0.00234 µM
[25] = RPMI 5 mM glucose + 10% dialyzed FBS, 0.00702 µM
[26] = RPMI 5 mM glucose + 10% dialyzed FBS, 0.0211 µM
[27] = RPMI 5 mM glucose + 10% dialyzed FBS, 0.0632 µM
[28] = RPMI 5 mM glucose + 10% dialyzed FBS, 0.19 µM
[29] = RPMI 5 mM glucose + 10% dialyzed FBS, 0.569 µM
[30] = RPMI 5 mM glucose + 10% dialyzed FBS, 1.71 µM
[31] = RPMI 5 mM glucose + 10% dialyzed FBS, 5.12 µM
[32] = RPMI 5 mM glucose + 10% dialyzed FBS, 15.4 µM
[33] = RPMI 5 mM glucose + 10% dialyzed FBS, 46.1 µM

Row | SMILES | cell viability [1] [%] | cell viability [2] [%] | cell viability [3] [%] | cell viability [4] [%] | cell viability [5] [%] | cell viability [6] [%] | cell viability [7] [%] | cell viability [8] [%] | cell viability [9] [%] | cell viability [10] [%] | cell viability [11] [%] | cell viability [12] [%] | cell viability [13] [%] | cell viability [14] [%] | cell viability [15] [%] | cell viability [16] [%] | cell viability [17] [%] | cell viability [18] [%] | cell viability [19] [%] | cell viability [20] [%] | cell viability [21] [%] | cell viability [22] [%] | cell viability [23] [%] | cell viability [24] [%] | cell viability [25] [%] | cell viability [26] [%] | cell viability [27] [%] | cell viability [28] [%] | cell viability [29] [%] | cell viability [30] [%] | cell viability [31] [%] | cell viability [32] [%] | cell viability [33] [%]
1 | CCCCC(C=O)NC(=O)C(CC(C)C)NC(=O)OCc1ccccc1 (stereo not drawn) | 90.9 | 94.3 | 95.8 | 90.7 | 95.6 | 91.8 | 91.1 | 85.7 | 80.6 | 81 | 70.5 | 88 | 91.3 | 90.3 | 82.1 | 91.6 | 84.2 | 80.6 | 82.3 | 78.3 | 73.7 | 51.7 | 86.1 | 85.4 | 83 | 86.9 | 79.6 | 84.8 | 81.3 | 76.7 | 71.3 | 70.6 | 53.7
2 | CN1CCC[C@@H]1CCO[C@](C)(c1ccccc1)c1ccc(Cl)cc1 | 94.5 | 100 | 99.3 | 113 | 105 | 104 | 104 | 107 | 112 | 109 | 97.2 | 97.8 | 104 | 106 | 104 | 108 | 98.1 | 104 | 114 | 100 | 119 | 101 | 93.9 | 101 | 111 | 106 | 103 | 100 | 105 | 102 | 104 | 108 | 90
3 | COc1cc2nc(-c3cc(F)ccc3O)nc(N[C@@H]3CNC[C@H]3C(C)(C)O)c2cc1OC | 104 | 104 | 106 | 110 | 110 | 109 | 114 | 120 | 80.5 | 76.6 | 56.5 | 108 | 104 | 111 | 111 | 118 | 128 | 119 | 129 | 83.5 | 67.8 | 44.3 | 116 | 123 | 117 | 113 | 121 | 116 | 124 | 115 | 69.6 | 48.5 | 37.5
4 | CC[C@H](NC(=O)[C@H](C)NC)C(=O)N1C[C@@H](O)C[C@H]1Cc1c(-c2[nH]c3cc(F)ccc3c2C[C@@H]2C[C@H](O)CN2C(=O)[C@H](CC)NC(=O)[C@H](C)NC)[nH]c2cc(F)ccc12 | 115 | 129 | 124 | 137 | 137 | 125 | 139 | 131 | 32.8 | 31.3 | 110 | – | – | – | – | – | – | – | – | – | – | – | – | – | – | – | – | – | – | – | – | – | –
5 | C/C(O)=C(\C#N)C(=O)Nc1cc(Br)ccc1Br | 105 | 110 | 114 | 109 | 109 | 109 | 108 | 105 | 99.6 | 97.9 | 95 | 100 | 109 | 104 | 108 | 105 | 107 | 100 | 101 | 104 | 96.4 | 86.5 | 106 | 113 | 114 | 109 | 106 | 104 | 103 | 116 | 96.3 | 94.5 | 94.5
6 | CC[C@]12\C=C/CN3CC[C@]4([C@@H](N(C)C5=CC(=C(C=C45)[C@]6(C[C@H]7C[C@H](CN(C7)CC8=C6[NH]C9=C8C=CC=C9)C(C)(F)F)C(=O)OC)OC)[C@](O)([C@@H]1OC(C)=O)C(=O)OC)[C@H]23 | 91.9 | 93.3 | 92 | 69.4 | 37 | 12 | 15.3 | 13.2 | 8.31 | 8.59 | 6.21 | 93.7 | 88.8 | 85.9 | 63.7 | 18.6 | 13.9 | 20.9 | 11.4 | 8.45 | 7.91 | 5.99 | 87.4 | 83 | 83.5 | 79.3 | 51.6 | 27.1 | 26.5 | 21.5 | 16.1 | 13 | 5.7
7 | COC1=CC=C(C=C1O)C/2=C/C(=O)C3=C(O2)C=C(O)C=C3O | 96.2 | 95.5 | 96.4 | 97 | 95.2 | 90.3 | 86.4 | 90.8 | 86.7 | 91.9 | 88.4 | 98 | 92.1 | 95.3 | 98.9 | 104 | 92.5 | 90.4 | 87.5 | 87.3 | 91.3 | 89.9 | 86.8 | 83.9 | 81.7 | 76.9 | 78.1 | 76.5 | 77.9 | 79.5 | 79.5 | 80.7 | 80.7
8 | CC1(N2CCC(n3c([C@@H]4CCCNC4)nc4ccccc43)CC2)CCCCCCC1 | 101 | 95.4 | 106 | 111 | 113 | 115 | 113 | 115 | 108 | 88 | 55.6 | 98.3 | 95 | 104 | 115 | 110 | 111 | 124 | 118 | 110 | 86.9 | 67.9 | 97.1 | 101 | 104 | 115 | 112 | 107 | 110 | 109 | 109 | 81.7 | 65.9
9 | COC1=CC=CC(=C1N)\C2=C\C(=O)C3=C(O2)C=CC=C3 | 110 | 122 | 122 | 133 | 128 | 129 | 134 | 129 | 129 | 133 | 120 | – | – | – | – | – | – | – | – | – | – | – | – | – | – | – | – | – | – | – | – | – | –
10 | O=C(c1ccc(F)c(F)c1Nc1ccc(I)cc1F)N1CC(O)([C@@H]2CCCCN2)C1 | 93.9 | 102 | 102 | 111 | 109 | 108 | 100 | 99 | 93.6 | 12.6 | 11.1 | 97.3 | 102 | 112 | 97.8 | 101 | 104 | 87.5 | 93 | 82.7 | 12.8 | 7.93 | 88.6 | 114 | 115 | 116 | 111 | 108 | 114 | 105 | 96.2 | 36.8 | 14.8
11 | COc1ccc(C2Sc3ccccc3N(CCN(C)C)C(=O)C2OC(C)=O)cc1 (stereo not drawn) | 102 | 115 | 103 | 108 | 112 | 121 | 112 | 102 | 109 | 112 | 93.9 | 101 | 112 | 110 | 108 | 104 | 112 | 110 | 107 | 99.8 | 103 | 98.3 | 122 | 108 | 108 | 112 | 113 | 112 | 110 | 109 | 104 | 105 | 92.8
12 | ClC1=CC\2=C(NC(=O)\C(=C2N[C@@H]3CN4CCC3CC4)C5=NC6=C([NH]5)C=CC=C6)C=C1 | 110 | 117 | 112 | 113 | 112 | 104 | 56.8 | 11.9 | 8.98 | 10.4 | 18.9 | 102 | 120 | 113 | 120 | 122 | 55.9 | 19.6 | 13.1 | 11 | 9.4 | 14.9 | 116 | 122 | 119 | 112 | 116 | 95.8 | 45.1 | 14 | 12.5 | 12.4 | 16.4
13 | CN[C@@H]1Cc2cccc3[nH]c(=O)n(c23)C1 | 124 | 123 | 114 | 115 | 122 | 117 | 108 | 117 | 108 | 106 | 111 | – | – | – | – | – | – | – | – | – | – | – | 122 | 122 | 116 | 130 | 117 | 123 | 115 | 109 | 108 | 111 | 105
14 | O=C(O)/C=C/c1ccc(O)c(O)c1 | 118 | 113 | 105 | 112 | 110 | 103 | 107 | 99.2 | 105 | 88.3 | 18.3 | 106 | 111 | 111 | 112 | 108 | 106 | 113 | 117 | 105 | 93.4 | 6.72 | 100 | 120 | 105 | 116 | 117 | 110 | 115 | 103 | 99.7 | 88.7 | 7.01
15 | CC[C@@]1(O)C(=O)OC\C2=C1\C=C\3N(CC4=C3N=C5C=CC=CC5=C4)C2=O | 122 | 120 | 107 | 86.1 | 13.3 | 10.1 | 7.26 | 5.09 | 4.83 | 3.78 | 5.54 | 115 | 113 | 116 | 69.9 | 10.9 | 7.97 | 6.35 | 4.58 | 3.68 | 3.91 | 6.1 | 115 | 115 | 107 | 59.8 | 16.8 | 9.84 | 7.6 | 5.62 | 4.44 | 4.32 | 6.06
16 | Nc1nnc(-c2cccc(Cl)c2Cl)c(N)n1 | 87.5 | 105 | 104 | 10.7 | 107 | 106 | 99.7 | 104 | 102 | 112 | 102 | 90.2 | 98.1 | 95.8 | 11.9 | 100 | 106 | 99.6 | 90.5 | 102 | 102 | 91 | 83.8 | 88.4 | 87.7 | 29.6 | 95 | 97.7 | 99.4 | 97.5 | 98.7 | 105 | 92.1
